Like-named read-outs stand apart in the source and are kept apart here. *1 amine or outer side, *2 acyl side, *3 side chain or, on linkers, in order; H or OH if unused. Where a SMILES comes first, the peptide text is derived from it. [ ]: non-standard residue; d: D form. The star is where a group is joined. Isobutyryl = CC(C)C(=O)*; Deg = CCC(N)(CC)C(=O)O; PhAc = O=C(Cc1ccccc1)*; CO = O=C([*:1])[*:2]; NHBn = c1ccc(CN*)cc1; Butyryl = CCCC(=O)*; Bz = O=C(c1ccccc1)*; NHPh = c1ccc(N*)cc1
Biological target: WDR5 (Homo sapiens (Human), UniProt P61964)
Assay: FP based competitive binding assay to WDR5
Settings: for times less potent than Ac-3mer: ratio vs Ac-3mer
Protocol: Another aspect of the invention is development of a Fluorescent Polarization (FP) based competitive binding assay. […] Next, the millipolarization (mP) values were measured at different time points in order to determine equilibrium duration and stability.
Accordingly, the optimal protein concentrations for the competitive assay was investigated.
All the FP based experiments were performed in MICROFLUOR® 2 Black, “U” Bottom, 96-well Microtiter Plates (ThermoSci.) and FP was measured as mP units in a microplate reader (Tecan Ultra) with excitation at 485 nm and emission at 530 nm. The Kd of the tracers and the IC50 value of the inhibitors were calculated using GraphPad Prism 4 software.
The binding affinities of the synthetic peptides shown in the study were measured using this competitive binding assay. A pre-incubated complex solution of WDR5Δ23 and the tracer in 120 μl assay buffer were added to dilutions of the test compound in 5 μl DMSO, giving final concentrations of WDR5Δ23 and the tracer of 4 nM and 0.6 nM, respectively. […] The plates were incubated with shaking at room temperature. The mP values were measured after five hours of incubation and Ki values were calculated using the equation described previously(31).

[1] = read-out: Binding Affinity to WDR5 (IC50 ± SD), Table 5 peptidomimetics
[2] = 4 nM WDR5Δ23, 0.6 nM 10mer-Thr-FAM tracer, Ki calculated by equation of ref. 31, read-out: Ki ± SD
[3] = 4 nM WDR5Δ23, 0.6 nM 10mer-Thr-FAM tracer, read-out: IC50 ± SD

| Molecule | IC50 [1] [nM] | also measured |
| --- | --- | --- |
| CCC(CC)(NC(=O)c1ccccc1)C(=O)N[C@H](CCCNC(=N)N)C(=O)NC1(C(N)=O)CCCC1 [Compound 10F] | > 5000 |  |
| CC(=O)NC(C)(C)C(=O)N[C@@H](CCCNC(=N)N)C(=O)NC1(C(N)=O)CCCC1 [Compound 6B] | < 1000 |  |
| CCC(CC)(NC(C)=O)C(=O)N[C@@H](CCCNC(=N)N)C(=O)NC1(C(N)=O)CCCC1 [Compound 6G] | < 1000 |  |
| CCCC(=O)N[C@@H](C)C(=O)N[C@@H](CCCNC(=N)N)C(=O)N[C@@H](C)C(N)=O [Compound 9C] (Butyryl-Ala-Arg-Ala-NH2) | < 5000 |  |
| C[C@H](NC(=O)[C@H](CCCNC(=N)N)NC(=O)[C@H](C)NC(=O)Cc1ccccc1)C(N)=O [Compound 9I] (PhAc-Ala-Arg-Ala-NH2) | > 25000 |  |
| CCC(CC)(NC(=O)C(C)C)C(=O)N[C@@H](CCCNC(=N)N)C(=O)NCc1ccccc1 [Compound 11D] (Isobutyryl-[Deg]-Arg-NHBn) | < 30000 |  |
| CC[C@H](NC(=O)[C@H](CCCNC(=N)N)NC(=O)C1(NC(C)=O)CCC1)C(=O)NC(c1ccccc1)c1ccccc1 [Compound 8B] | < 1000 |  |
| CCC(CC)(NC(=O)C(C)C)C(=O)N[C@@H](CCCNC(=N)N)C(=O)Nc1ccccc1 [Compound 11C] (Isobutyryl-[Deg]-Arg-NHPh) | < 10000 |  |
| CNC(=O)N[C@@H](C)C(=O)N[C@@H](CCCNC(=N)N)C(=O)N[C@@H](C)C(N)=O [Compound 9K] ({NHMe-CO}-Ala-Arg-Ala-NH2) | < 10000 |  |
| C[C@H](NC(=O)[C@H](CCCNC(=N)N)NC(=O)[C@H](C)NC(=O)N(C)C)C(N)=O [Compound 9J] ({NMe2-CO}-Ala-Arg-Ala-NH2) | < 100000 |  |
| CC(=O)N[C@@H](C)C(=O)N[C@@H](CCCNC(=N)N)C(=O)N[C@@H](C)C(=O)N(C)C [Δ2b, Ac-ARA-CONMe2] (Ac-Ala-Arg-Ala-NMe2) |  | Ki [2]: 6500 ± 1200 nM; IC50 [3]: 30000 ± 5000 nM; times less potent than Ac-3mer: 50 |
| Ac-SARAEVHLRKS-NH2 [Ac-11mer] |  | Ki [2]: 200 ± 30 nM; IC50 [3]: 1040 ± 140 nM |
| CC[C@H](NC(=O)[C@H](CCCNC(=N)N)NC(=O)C1(NC(C)=O)CCC1)C(N)=O [Compound 6D] | < 1000 |  |
| CC(=O)N[C@@H](C)C(=O)N[C@@H](CCCNC(=N)N)C(=O)N[C@@H](C)C(=O)Nc1ccccc1 [Compound 7D] (Ac-Ala-Arg-Ala-NHPh) | < 1000 |  |
| CC[C@H](C)NC(=O)[C@H](CCCNC(=N)N)NC(=O)C(CC)(CC)NC(=O)C(C)C [Compound 11A] | < 3000 |  |
| CCC(CC)(NC(=O)c1ccccc1)C(=O)N[C@@H](CCCNC(=N)N)C(=O)NC1(C(=O)NC(c2ccccc2)c2ccccc2)CCCC1 [Compound 10I] | > 5000 |  |
| CC[C@H](NC(=O)[C@H](CCCNC(=N)N)NC(=O)C(CC)(CC)NC(=O)C(C)C)c1ccccc1 [Compound 11K] | < 3000 |  |
| COC(=O)[C@H](C)NC(=O)[C@H](CCCNC(=N)N)NC(=O)[C@H](C)NC(C)=O [Δ2c, Ac-ARA-COOCH3] (Ac-Ala-Arg-Ala-OMe) |  | Ki [2]: 1600 ± 200 nM; IC50 [3]: 7300 ± 800 nM; times less potent than Ac-3mer: 10 |
| CC(=O)N[C@@H](C)C(=O)N[C@@H](CCCNC(=N)N)C(=O)N[C@H](C(N)=O)[C@@H](C)O [Compound 3I] (Ac-Ala-Arg-Thr-NH2) | < 1000 |  |
| CC(=O)N[C@@H](C)C(=O)N[C@@H](CCCCN)C(=O)N[C@@H](C)C(N)=O [Compound 2C] (Ac-Ala-Lys-Ala-NH2) | > 1000 |  |
| Ac-ARAEVH-NH2 [Ac-6mer, Ac-ARAEVH-NH2] |  | IC50 (read-out: IC50 ± SD): 400 ± 100 nM; Ki (read-out: Ki ± SD): 90 ± 20 nM |
| C[C@H](NC(=O)[C@H](CCCNC(=N)N)NC(=O)[C@H](C)NC(=O)C1CC1)C(N)=O [Compound 9E] | < 5000 |  |
| C[C@H](NC(=O)[C@H](CCCNC(=N)N)NC(=O)[C@H](C)NC(=O)c1ccccc1)C(N)=O [Compound 9H] (Bz-Ala-Arg-Ala-NH2) | > 1000 |  |
| CCC(CC)(NC(=O)C(C)C)C(=O)N[C@@H](CCCNC(=N)N(C)C)C(=O)NC1(C(N)=O)CCCC1 [Compound 10G] | > 1000 |  |
| CC(=O)N[C@@H](C)C(=O)N[C@@H](CCCNC(=N)N)C(=O)N[C@@H](C)C(=O)N[C@@H](CCC(=O)O)C(=O)N[C@H](C(=O)N[C@@H](Cc1c[nH]cn1)C(=O)N[C@@H](CC(C)C)C(=O)N[C@@H](CCCNC(=N)N)C(=O)N[C@@H](CCCCN)C(=O)N[C@@H](CO)C(N)=O)C(C)C [Ac-10mer] |  | IC50 [3]: 20 ± 4 nM; times more potent than the WIN peptide (Ki ratio vs WIN): 50; Ki (read-out: Ki): 3 nM |
| CC(=O)NC1(C(=O)N[C@@H](CCCNC(=N)N)C(=O)N[C@H](C(N)=O)C(C)C)CCCCC1 [Compound 4D] | < 1000 |  |
| CCC(CC)(NC(=O)C(C)C)C(=O)N[C@@H](CCCNC(=N)N)C(=O)NC1(C(N)=O)CCCC1 [Compound 10C] | < 1000 |  |
| CC(C)C[C@H](NC(=O)[C@H](Cc1c[nH]cn1)NC(=O)[C@@H](NC(=O)[C@H](CCC(=O)O)NC(=O)[C@H](C)NC(=O)[C@H](CCCNC(=N)N)NC(=O)[C@H](C)N)C(C)C)C(=O)N[C@@H](CCCNC(=N)N)C(=O)N[C@@H](CCCCN)C(=O)N[C@@H](CO)C(N)=O [Compound H2N-10mer] |  | Ki [2]: 7300 ± 700 nM; IC50 [3]: 34000 ± 3000 nM |
| CC(=O)NC1(C(=O)N[C@@H](CCCNC(=N)N)C(=O)NC2(C(N)=O)CCCC2)CCC1 [Compound 6E] | < 1000 |  |
